This is an account of results in ChEMBL document CHEMBL3832077, “DailyMed|setid=dc3d3905-2f08-4b71-b949-53f49fb3ea10 | METRONIDAZOLE- metronidazole tablet|Lake Erie Medical DBA Quality Care Products LLC”.

The test system of data set [1] is Homo sapiens. The experiment in a line: (§1) Evaluation of pharmacokinetic parameters for Metronidazole following oral administration of Metronidazole tablets. Format: ADME, organism-based. More on the design: dose 250 mg, dose 2000 mg, dose 500 mg, route oral. The conditions noted are these: in vivo, po, dosed compound id 31, dosed compound name METRONIDAZOLE, tissue Plasma.

The nature of data set [2]: as §1. Format: ADME, organism-based. The arrangement: dose 250 mg, dose 2000 mg, dose 500 mg, route oral. The conditions noted are these: human, in vivo, dosed compound id 31, dosed compound name METRONIDAZOLE, tissue Plasma.

Each structure is given as a SMILES string.

One may read the Tmax as the time at which the peak concentration occurs.

`Cc1ncc([N+](=O)[O-])n1CCO` [METRONIDAZOLE]: the CL_renal in data set [1] was found to be 10 mL/min/1.73 m2. Moreover, the Tmax in data set [2] fell in the range of 1 to 2 h.
